# Assay: collision cross section in nitrogen (drift tube, single-field); higher = larger gas-phase ion size
# [1] = ion type: [M+H], ion source: APCI, ion mode: Positive
# [2] = ion type: [M-H], ion source: ESI, ion mode: Negative
# [3] = ion type: [M+H], ion source: ESI, ion mode: Positive
# [4] = ion type: [M+Na], ion source: ESI, ion mode: Positive
# [5] = ion type: [M+], ion source: APCI, ion mode: Positive
# 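Also: chemical standards at 10 µM analysed by drift tube IMS-QTOF MS in about 3.95 torr nitrogen, mean of duplicate injections differing ≤1%, mass error below 10 ppm.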
SMILES,collision cross section in nitrogen [1],collision cross section in nitrogen [2],collision cross section in nitrogen [3],collision cross section in nitrogen [4],collision cross section in nitrogen [5]
"O=C(O)c1c(Cl)ccc(Cl)c1Cl [2,3,6-Trichlorobenzoic acid]",,143.9 Å²,,,
"Cc1cccc(O)c1C [2,3-Dimethylphenol]",,126.6 Å²,,,
CCC(=NOC/C=C/Cl)C1=C(O)CC(C2CCOCC2)CC1=O (centres undefined) [Tepraloxydim],,181.1 Å²,185.8 Å²,191.1 Å²,
"NCCOCCOCCN [2,2'-[Ethane-1,2-diylbis(oxy)]diethanamine]",,,,132.4 Å²,
CCOC(=O)NC(=S)Nc1ccccc1NC(=S)NC(=O)OCC [Thiophanate],187 Å²,,186.6 Å²,189.6 Å²,187.5 Å²
COc1nn(CSP(=S)(OC)OC)c(=O)s1 [Methidathion],,,,163.4 Å²,
Nc1c(Cl)c(F)nc(OCC(=O)O)c1Cl [Fluroxypyr],,141.3 Å²,,,
CCN(CC)c1ccc2c(C)cc(=O)oc2c1 [7-Diethylamino-4-methylcoumarin],152.6 Å²,159.4 Å²,152.6 Å²,176.4 Å²,
C=C(c1ccc(C(=O)O)cc1)c1cc2c(cc1C)C(C)(C)CCC2(C)C [Bexarotene],,208.7 Å²,,,
COC(=O)NS(=O)(=O)c1ccc(N)cc1 [Asulam],,150.4 Å²,,,
"O=[N+]([O-])c1cc([N+](=O)[O-])c2ccccc2c1 [1,3-Dinitronaphthalene]",,138.9 Å²,,,
Cc1ccc(S(=O)(=O)Oc2ccc(N=Nc3ccc(-c4ccc(N=Nc5c(O)ccc6cc(S(=O)(=O)O)cc(S(=O)(=O)O)c56)c(C)c4)cc3C)cc2)cc1 [C.I. Acid Red 114],,317.8 Å²,319.9 Å²,,
c1cncc([C@@H]2CCCCN2)c1 [Anabasine],136.4 Å²,,135.9 Å²,,
Oc1ccc(I)cc1 [4-Iodophenol],,124.5 Å²,,,
CCOP(=S)(OCC)Oc1nc(Cl)n(C(C)C)n1 [Isazofos],,,166.9 Å²,174.8 Å²,
NC(=O)c1nc(-c2cccc(-c3cc(F)ccc3OCC(F)(F)C(F)(F)F)c2)n[nH]1,189.4 Å²,195.5 Å²,189.1 Å²,190.9 Å²,

# Second part, led by results:
collision cross section in nitrogen [1],collision cross section in nitrogen [2],collision cross section in nitrogen [3],collision cross section in nitrogen [4],SMILES,collision cross section in nitrogen [5]
201.9 Å²,203.8 Å²,,,"c1ccc2cc(Nc3ccc(Nc4ccc5ccccc5c4)cc3)ccc2c1 [N,N'-Di-2-naphthyl-p-phenylenediamine]",
,147.3 Å²,,,O=C(O)c1cc(C(=O)O)cc(S(=O)(=O)O)c1 [Lithium 3-carboxy-5-sulfobenzoate],
,176.2 Å²,,,CC/C(=C(/CC)c1ccc(O)cc1)c1ccc(O)cc1 [Diethylstilbestrol],
153.9 Å²,158.4 Å²,154.2 Å²,,Cc1cc(C)c(C=C2C(=O)Nc3ccccc32)[nH]1 [SU-5416],152.2 Å²
171.3 Å²,,171.1 Å²,177.5 Å²,O=[N+]([O-])c1cc(N(CCO)CCO)ccc1NCCO [HC Blue 2],
190.2 Å²,,189.3 Å²,189.1 Å²,CCOC(=O)C(C)Oc1ccc(Oc2nc3ccc(Cl)cc3o2)cc1 (centres undefined) [Fenoxaprop-ethyl],
,,,138.1 Å²,COCCOCCOCCOC [Triethylene glycol dimethyl ether],
258.5 Å²,,257.1 Å²,262.9 Å²,CC[C@H]1OC(=O)[C@H](C)[C@@H](O[C@H]2C[C@@](C)(OC)[C@@H](O)[C@H](C)O2)[C@H](C)[C@@H](O[C@@H]2O[C@H](C)C[C@H](N(C)C)[C@H]2O)[C@](C)(O)C[C@@H](C)C(=O)[C@H](C)[C@@H](O)[C@]1(C)O [Erythromycin],
,,,207.3 Å²,CCCCC(CC)C(=O)OCCOCCOCCOC(=O)C(CC)CCCC (centres undefined) [Triethylene glycol bis(2-ethylhexanoate)],
